Measured values: ChEMBL document CHEMBL1201862, “PubChem BioAssay data set” (2004)
Calls of active or inactive are those of the source.

What was measured:
HEK293 = assay: cells; format: functional, cell-based; conditions: Homo sapiens
[1] = biological target: T1, Nuclear receptor subfamily 0 group B member 1 (Homo sapiens, UniProt P51843); assay: Luminescence-based cell-based high throughput dose response assay for inhibitors of the orphan nuclear receptor subfamily 0, group B, member 1 (DAX1; NR0B1). [Related pubchem assays (depositor defined):AID504766, AID504790]; format: functional
T1 sequence (P51843 whole entry): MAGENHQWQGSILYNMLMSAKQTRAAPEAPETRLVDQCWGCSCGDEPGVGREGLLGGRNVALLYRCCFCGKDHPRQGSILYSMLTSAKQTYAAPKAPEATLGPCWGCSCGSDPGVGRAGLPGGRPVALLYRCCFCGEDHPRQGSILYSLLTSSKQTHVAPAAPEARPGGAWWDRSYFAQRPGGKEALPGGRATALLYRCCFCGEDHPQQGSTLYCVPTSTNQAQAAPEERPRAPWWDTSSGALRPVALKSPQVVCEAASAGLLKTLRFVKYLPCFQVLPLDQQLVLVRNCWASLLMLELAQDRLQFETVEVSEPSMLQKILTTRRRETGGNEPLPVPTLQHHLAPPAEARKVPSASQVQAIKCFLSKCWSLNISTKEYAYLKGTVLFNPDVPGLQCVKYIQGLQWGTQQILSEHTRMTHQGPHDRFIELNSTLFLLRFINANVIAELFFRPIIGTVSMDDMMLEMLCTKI

Cytochrome P450 2C19 = Cytochrome P450 2C19 (Homo sapiens, UniProt P33261); assay: Cytochrome panel assay with activity outcomes. Panel member name: p450-cyp2c19 Compounds with AC50 equal or less than 10 uM are considered active; format: functional; conditions: read-out: AC50
Chain of Cytochrome P450 2C19 (P33261 whole entry): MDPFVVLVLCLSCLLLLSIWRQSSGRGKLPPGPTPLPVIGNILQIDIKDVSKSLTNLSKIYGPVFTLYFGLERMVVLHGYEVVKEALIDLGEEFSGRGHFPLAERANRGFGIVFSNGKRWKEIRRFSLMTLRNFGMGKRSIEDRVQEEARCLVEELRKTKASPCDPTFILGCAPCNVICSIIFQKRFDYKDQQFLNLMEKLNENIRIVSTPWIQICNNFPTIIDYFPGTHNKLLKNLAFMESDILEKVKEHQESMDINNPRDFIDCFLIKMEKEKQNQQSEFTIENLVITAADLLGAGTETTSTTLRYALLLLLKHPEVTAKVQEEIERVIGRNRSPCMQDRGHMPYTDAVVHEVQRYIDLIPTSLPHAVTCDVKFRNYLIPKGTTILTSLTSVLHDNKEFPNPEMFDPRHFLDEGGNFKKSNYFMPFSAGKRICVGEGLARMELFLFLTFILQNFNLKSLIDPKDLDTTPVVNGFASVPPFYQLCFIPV

Cytochrome P450 3A4 = Cytochrome P450 3A4 (Homo sapiens, UniProt P08684);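 further: CYP3A4 tested as one member of a cytochrome P450 panel screen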
Chain of Cytochrome P450 3A4 (P08684 whole entry): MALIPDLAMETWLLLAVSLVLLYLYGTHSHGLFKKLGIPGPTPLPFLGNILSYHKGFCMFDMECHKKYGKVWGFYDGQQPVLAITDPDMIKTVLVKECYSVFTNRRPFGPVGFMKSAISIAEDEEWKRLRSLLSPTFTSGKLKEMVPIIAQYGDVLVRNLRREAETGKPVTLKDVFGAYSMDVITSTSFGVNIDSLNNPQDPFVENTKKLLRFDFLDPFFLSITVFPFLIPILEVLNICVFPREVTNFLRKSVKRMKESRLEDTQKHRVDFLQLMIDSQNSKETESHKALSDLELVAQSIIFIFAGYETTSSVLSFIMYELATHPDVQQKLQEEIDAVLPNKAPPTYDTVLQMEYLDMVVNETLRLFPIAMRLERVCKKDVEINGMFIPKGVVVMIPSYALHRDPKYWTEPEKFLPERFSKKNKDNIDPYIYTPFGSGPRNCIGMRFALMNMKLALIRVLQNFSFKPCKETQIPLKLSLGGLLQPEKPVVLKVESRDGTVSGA

Beta-galactosidase = Beta-galactosidase (Escherichia coli, UniProt Q8VNN2); assay: beta-galactosidase enzyme inhibitors and activators, dose response, artefact control for CCR6 antagonist project, biochemical, E. coli enzyme, set 3 (AID 504712); format: functional
Chain of Beta-galactosidase (Q8VNN2 whole entry): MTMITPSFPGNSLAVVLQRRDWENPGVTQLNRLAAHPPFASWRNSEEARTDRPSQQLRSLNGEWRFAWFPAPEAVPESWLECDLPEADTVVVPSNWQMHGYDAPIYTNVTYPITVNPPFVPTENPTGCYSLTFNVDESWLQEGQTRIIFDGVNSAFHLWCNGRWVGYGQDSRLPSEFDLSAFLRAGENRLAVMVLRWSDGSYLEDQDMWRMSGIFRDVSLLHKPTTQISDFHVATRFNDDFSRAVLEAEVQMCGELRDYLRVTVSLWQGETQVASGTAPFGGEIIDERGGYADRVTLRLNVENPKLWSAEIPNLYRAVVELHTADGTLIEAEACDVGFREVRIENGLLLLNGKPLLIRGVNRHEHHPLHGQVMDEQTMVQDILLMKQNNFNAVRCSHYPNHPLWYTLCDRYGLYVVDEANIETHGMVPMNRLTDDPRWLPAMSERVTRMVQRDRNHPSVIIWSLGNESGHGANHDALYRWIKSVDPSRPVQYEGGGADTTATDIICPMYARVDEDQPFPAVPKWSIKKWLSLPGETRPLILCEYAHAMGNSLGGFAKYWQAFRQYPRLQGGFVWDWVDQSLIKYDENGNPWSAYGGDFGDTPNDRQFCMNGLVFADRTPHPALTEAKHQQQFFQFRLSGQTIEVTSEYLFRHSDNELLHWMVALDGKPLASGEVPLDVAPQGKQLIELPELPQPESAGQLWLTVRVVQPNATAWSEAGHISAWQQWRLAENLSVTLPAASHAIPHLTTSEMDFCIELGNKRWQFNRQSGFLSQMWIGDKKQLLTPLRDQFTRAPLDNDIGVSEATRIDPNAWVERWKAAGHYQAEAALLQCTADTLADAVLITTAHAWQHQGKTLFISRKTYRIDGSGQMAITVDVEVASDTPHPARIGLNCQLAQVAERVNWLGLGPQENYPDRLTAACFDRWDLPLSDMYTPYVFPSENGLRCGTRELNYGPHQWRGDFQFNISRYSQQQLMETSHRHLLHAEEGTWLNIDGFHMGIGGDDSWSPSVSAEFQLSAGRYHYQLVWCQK

[2] = biological target: T2, C-C chemokine receptor type 6 (Homo sapiens, UniProt P51684); assay: CCR6 receptor antagonists, dose response, cell-based, luminescent beta-arrestin readout (AID 504728); format: functional
T2 sequence (P51684 whole entry): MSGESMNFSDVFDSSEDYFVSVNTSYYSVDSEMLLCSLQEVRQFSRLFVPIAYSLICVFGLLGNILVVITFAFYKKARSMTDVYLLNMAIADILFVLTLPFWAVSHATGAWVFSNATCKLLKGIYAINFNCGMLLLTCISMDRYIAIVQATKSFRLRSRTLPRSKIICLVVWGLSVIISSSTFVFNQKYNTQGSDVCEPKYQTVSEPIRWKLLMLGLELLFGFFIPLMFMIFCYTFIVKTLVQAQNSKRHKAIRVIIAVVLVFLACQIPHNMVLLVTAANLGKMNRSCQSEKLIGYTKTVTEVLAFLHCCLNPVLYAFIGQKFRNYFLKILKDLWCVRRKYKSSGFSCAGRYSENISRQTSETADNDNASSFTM

Cytochrome P450 1A2 = biological target: T3, Cytochrome P450 1A2 (Homo sapiens, UniProt P05177);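 further: PubChem cytochrome P450 panel assay, CYP1A2 panel member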
T3 sequence (P05177 whole entry): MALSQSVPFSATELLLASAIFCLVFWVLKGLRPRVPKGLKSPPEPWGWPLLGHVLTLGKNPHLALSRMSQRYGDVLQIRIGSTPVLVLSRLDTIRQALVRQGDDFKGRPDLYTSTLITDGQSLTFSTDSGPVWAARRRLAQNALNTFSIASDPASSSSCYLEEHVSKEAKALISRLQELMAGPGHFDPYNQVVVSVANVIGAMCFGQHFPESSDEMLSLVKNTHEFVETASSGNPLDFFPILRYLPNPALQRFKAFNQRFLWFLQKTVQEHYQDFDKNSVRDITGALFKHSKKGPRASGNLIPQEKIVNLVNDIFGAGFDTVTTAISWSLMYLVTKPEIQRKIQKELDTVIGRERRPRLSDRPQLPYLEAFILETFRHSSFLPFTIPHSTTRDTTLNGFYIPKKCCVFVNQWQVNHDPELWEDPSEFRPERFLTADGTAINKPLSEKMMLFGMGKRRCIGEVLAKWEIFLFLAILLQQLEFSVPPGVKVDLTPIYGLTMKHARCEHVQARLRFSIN

Cytochrome P450 2C9 = Cytochrome P450 2C9 (Homo sapiens, UniProt P11712)
Chain of Cytochrome P450 2C9 (P11712 whole entry): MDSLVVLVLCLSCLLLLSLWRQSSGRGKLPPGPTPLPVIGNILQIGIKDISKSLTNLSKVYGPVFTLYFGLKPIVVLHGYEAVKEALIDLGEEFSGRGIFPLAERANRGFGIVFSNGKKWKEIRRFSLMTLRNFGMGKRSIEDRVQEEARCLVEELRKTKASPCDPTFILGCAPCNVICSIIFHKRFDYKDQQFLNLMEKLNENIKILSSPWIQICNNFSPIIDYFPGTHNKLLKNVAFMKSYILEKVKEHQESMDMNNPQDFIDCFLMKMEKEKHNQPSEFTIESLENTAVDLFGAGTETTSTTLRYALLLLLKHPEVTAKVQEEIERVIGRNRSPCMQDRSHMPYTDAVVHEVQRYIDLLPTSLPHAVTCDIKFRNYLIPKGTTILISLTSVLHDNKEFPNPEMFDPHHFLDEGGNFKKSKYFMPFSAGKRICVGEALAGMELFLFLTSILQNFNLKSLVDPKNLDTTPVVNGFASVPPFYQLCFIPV

[3] = biological target: G-protein coupled receptor 35 (Homo sapiens, UniProt Q9HC97); assay: GPR35 antagonists blocking zaprinast-driven arrestin recruitment, primary screen, imaging, U2OS, beta-arrestin-GFP, zaprinast agonist (AID 2058); format: functional;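 further: antagonist potency meaning inhibition of agonist-induced arrestin redistribution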
Chain of G-protein coupled receptor 35 (Q9HC97 whole entry): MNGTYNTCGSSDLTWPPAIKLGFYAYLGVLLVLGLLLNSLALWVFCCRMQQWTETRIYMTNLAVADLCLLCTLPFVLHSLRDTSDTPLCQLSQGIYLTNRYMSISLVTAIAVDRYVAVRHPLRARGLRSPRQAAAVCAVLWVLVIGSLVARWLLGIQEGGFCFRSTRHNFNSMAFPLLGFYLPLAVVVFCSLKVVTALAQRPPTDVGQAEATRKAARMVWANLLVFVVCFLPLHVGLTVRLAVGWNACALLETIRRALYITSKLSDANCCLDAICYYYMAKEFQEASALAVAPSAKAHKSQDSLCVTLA

INS1 = assay: beta cell apoptosis inhibitors, cytokine rescue, dose response, luminescence, retest (AID 449756); format: functional, cell-based; conditions: Rattus norvegicus;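 further: cell death triggered by IL-1 beta plus TNF-alpha plus IFN-gamma mixture; protective hits raise ATP signal compared with cytokine alone wells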
[4] = Luminescence Cell-Based Dose Retest to Confirm Inhibitors of Cancer Stem Cells. [Related pubchem assays (depositor defined):AID2717, AID2721]; format: functional; conditions: Homo sapiens
[5] = biological target: Neurotensin receptor type 1 (Homo sapiens, UniProt P30989); format: functional;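 further: Image-based confirmatory dose-response assay measuring agonist activity at NTR1; NTR1-expressing U2OS osteosarcoma cells imaged for beta-arrestin GFP spot formation; agonist potency where compounds increase beta-arrestin recruitment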
Chain of Neurotensin receptor type 1 (P30989 whole entry): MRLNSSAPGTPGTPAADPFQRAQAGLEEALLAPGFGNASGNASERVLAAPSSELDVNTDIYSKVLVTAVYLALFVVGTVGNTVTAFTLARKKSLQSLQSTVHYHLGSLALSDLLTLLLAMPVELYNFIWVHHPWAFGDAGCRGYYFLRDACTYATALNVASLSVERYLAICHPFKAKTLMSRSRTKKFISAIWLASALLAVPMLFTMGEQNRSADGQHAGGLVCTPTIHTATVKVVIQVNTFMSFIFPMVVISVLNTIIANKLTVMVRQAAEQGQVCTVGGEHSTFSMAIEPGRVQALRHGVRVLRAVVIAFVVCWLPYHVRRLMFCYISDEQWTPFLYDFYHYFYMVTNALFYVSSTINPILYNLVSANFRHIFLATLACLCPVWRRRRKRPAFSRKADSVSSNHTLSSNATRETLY

[6] = biological target: T4, Ubiquitin-conjugating enzyme E2 N (Homo sapiens, UniProt P61088); format: functional;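 further: Dose-response confirmation in a TR-FRET assay detecting UBC13-driven polyubiquitin chain formation, inhibition measured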
T4 sequence (P61088 whole entry): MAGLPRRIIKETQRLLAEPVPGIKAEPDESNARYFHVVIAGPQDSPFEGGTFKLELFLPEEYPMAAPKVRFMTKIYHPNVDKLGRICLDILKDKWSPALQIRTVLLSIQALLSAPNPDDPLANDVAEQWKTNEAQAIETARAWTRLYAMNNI

[7] = tested on: Streptococcus sp. 'group A'; assay: growth inhibition of control SK(-) GAS strain, dose response, counter-screen for streptokinase expression inhibitor project, luminescence, kanamycin, BacTiterGlo, confirmation (AID 1900); format: functional, organism-based
Streptokinase A = biological target: T5, Streptokinase A (Streptococcus pyogenes serotype M1, UniProt P10520); assay: S. pyogenes streptokinase expression inhibitors, potency, dose response, plasminogen activation absorbance, OD405 (AID 1914); format: functional, Streptococcus pyogenes M1 GAS;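 further: secreted streptokinase activity via plasminogen activation per viability signal from cell pellet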
T5 sequence (P10520 whole entry): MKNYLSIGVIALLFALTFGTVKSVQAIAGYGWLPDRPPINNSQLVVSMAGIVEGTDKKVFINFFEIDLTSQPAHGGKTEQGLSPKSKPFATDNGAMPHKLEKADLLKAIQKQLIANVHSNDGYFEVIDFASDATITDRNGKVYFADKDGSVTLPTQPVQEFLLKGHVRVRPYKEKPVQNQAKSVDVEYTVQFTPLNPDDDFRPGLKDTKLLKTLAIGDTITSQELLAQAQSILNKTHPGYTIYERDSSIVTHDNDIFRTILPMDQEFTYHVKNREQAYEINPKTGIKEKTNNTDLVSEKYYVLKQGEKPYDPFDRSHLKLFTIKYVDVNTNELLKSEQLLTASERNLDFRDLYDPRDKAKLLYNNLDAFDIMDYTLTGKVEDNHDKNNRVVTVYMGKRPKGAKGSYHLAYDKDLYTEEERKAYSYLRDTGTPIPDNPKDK

Streptococcus = assay: Group A Streptococcus viability loss, dose response, counter-screen for streptokinase expression inhibitor project, luminescence, BacTiterGlo (AID 1915); format: functional, organism-based;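 further: potency for reduction of bacterial viability or growth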
[8] = biological target: Heat shock protein HSP 90-alpha (Homo sapiens, UniProt P07900); format: functional, organism-based
[9] = biological target: Intestinal-type alkaline phosphatase (Homo sapiens, UniProt P09923); assay: Dose Response confirmation of uHTS hits from a small molecule inhibitors of human intestinal alkaline phosphatase via a luminescent assay. [Related pubchem assays (depositor defined):AID2544, AID2574]; format: functional
Chain of Intestinal-type alkaline phosphatase (P09923 whole entry): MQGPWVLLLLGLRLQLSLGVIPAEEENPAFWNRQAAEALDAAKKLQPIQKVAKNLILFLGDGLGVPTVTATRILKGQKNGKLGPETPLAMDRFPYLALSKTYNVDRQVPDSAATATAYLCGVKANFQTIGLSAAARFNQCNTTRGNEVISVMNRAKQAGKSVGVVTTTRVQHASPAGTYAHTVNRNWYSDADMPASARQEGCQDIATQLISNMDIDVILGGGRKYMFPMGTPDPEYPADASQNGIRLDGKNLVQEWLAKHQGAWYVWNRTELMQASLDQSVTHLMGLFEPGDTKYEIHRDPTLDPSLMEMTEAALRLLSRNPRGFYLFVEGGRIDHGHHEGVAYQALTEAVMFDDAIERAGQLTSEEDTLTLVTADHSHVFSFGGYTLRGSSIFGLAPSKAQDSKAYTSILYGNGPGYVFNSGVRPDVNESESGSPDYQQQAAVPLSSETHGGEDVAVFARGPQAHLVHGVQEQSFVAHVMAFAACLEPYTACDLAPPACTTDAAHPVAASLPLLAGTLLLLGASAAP

cells = format: functional
[10] = THP-1 cell cytotoxicity, dose response, cytotoxicity control for non-replicating M. tuberculosis project (AID 489025); format: functional
[11] = biological target: Dual specificity tyrosine-phosphorylation-regulated kinase 1A (Rattus norvegicus, UniProt Q63470); format: biochemical, Homo sapiens
[12] = biological target: T6, E3 ubiquitin-protein ligase XIAP (Homo sapiens, UniProt P98170); assay: XIAP antagonists, biochemical, IAP family, fluorescence polarization (AID 1018); format: functional
T6 sequence (P98170 whole entry): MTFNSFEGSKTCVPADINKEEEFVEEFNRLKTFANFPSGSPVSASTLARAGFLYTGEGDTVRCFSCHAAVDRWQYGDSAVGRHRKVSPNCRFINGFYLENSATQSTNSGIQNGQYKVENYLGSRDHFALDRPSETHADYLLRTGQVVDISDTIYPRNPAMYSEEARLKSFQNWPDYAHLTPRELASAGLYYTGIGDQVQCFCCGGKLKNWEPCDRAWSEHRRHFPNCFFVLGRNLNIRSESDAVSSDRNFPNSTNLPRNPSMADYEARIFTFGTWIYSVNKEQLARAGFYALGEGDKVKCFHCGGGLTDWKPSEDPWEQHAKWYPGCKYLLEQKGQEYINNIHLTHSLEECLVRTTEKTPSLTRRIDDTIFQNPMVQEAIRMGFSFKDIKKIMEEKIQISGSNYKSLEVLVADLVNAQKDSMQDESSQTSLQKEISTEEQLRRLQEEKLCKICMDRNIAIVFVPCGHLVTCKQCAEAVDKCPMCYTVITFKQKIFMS

[13] = biological target: T6, E3 ubiquitin-protein ligase XIAP; assay: Counter Screen using XIAP-Bir3 for Chemical Antagonists of Bir1/2 domains of IAP-family anti-apoptotic proteins. [Related pubchem assays (depositor defined):AID1018, AID1449, AID1514, AID1638, AID1749, AID1750, AID488957, AID488963]
Large T antigen = Large T antigen (Simian virus 40, UniProt P03070); format: functional, Betapolyomavirus macacae;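 further: Confirmatory-stage PubChem screen for compounds that inhibit SV40 T antigen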
Chain of Large T antigen (P03070 whole entry): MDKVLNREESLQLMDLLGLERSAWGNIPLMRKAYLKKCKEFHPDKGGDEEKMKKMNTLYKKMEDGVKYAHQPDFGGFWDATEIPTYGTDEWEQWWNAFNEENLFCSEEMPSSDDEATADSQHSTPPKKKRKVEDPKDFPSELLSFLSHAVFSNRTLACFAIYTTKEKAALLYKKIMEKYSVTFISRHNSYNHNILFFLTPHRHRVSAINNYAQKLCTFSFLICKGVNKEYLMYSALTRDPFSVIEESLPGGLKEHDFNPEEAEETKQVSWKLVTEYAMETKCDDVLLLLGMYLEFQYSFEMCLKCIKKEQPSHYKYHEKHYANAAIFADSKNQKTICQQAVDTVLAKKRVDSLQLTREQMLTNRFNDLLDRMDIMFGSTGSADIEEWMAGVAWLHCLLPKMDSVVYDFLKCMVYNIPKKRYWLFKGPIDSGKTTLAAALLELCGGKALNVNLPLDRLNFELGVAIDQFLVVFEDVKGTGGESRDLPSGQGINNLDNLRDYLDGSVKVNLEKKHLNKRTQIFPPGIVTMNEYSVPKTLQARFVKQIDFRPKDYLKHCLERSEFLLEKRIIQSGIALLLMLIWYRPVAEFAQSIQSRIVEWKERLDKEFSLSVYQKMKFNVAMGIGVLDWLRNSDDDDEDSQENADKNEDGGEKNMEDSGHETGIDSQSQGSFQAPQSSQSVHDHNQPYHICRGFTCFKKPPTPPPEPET

[14] = biological target: T7, Histone-lysine N-methyltransferase NSD2 (Homo sapiens, UniProt O96028); format: biochemical
T7 sequence (O96028 whole entry): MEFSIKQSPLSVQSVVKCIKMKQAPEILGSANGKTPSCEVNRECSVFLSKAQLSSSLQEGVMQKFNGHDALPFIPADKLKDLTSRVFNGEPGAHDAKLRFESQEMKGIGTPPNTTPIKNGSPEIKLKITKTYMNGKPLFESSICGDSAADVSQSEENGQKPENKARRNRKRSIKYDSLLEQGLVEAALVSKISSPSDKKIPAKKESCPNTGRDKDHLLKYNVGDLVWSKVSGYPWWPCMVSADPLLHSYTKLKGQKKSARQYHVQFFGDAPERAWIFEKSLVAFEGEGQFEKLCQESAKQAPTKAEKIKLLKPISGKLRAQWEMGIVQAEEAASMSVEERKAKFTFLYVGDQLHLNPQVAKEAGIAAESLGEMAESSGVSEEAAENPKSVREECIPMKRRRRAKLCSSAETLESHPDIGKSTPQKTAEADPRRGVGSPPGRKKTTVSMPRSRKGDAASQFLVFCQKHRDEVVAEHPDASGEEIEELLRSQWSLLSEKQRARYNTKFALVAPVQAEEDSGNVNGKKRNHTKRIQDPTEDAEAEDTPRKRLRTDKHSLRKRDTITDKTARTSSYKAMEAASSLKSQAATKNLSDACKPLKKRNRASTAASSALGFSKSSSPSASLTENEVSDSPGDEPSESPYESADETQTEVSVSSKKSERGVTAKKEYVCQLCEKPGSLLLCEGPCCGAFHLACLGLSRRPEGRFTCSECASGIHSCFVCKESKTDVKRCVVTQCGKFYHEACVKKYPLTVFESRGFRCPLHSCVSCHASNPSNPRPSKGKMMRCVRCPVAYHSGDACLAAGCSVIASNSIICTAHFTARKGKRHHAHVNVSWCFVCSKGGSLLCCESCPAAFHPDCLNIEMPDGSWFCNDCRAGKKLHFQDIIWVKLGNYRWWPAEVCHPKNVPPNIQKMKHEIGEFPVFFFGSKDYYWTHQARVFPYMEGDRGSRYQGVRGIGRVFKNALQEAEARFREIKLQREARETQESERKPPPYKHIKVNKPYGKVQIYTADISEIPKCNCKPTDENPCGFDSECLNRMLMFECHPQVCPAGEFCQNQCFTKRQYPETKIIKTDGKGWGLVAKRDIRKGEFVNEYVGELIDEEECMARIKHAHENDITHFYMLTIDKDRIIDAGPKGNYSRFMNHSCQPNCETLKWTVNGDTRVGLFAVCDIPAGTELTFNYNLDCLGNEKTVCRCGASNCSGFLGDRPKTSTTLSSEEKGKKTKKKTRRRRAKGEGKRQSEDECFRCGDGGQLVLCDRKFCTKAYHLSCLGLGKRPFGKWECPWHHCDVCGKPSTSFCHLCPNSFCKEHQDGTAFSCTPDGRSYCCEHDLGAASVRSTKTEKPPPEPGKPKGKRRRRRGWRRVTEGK

[15] = inhibitors of intracellular T. cruzi replication, confirmation, NIH3T3 host cells, beta-gal luminescence (AID 2044); format: functional, cell-based;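 further: intracellular parasites grown in NIH/3T3 mouse fibroblasts as host cells; luminescent beta-galactosidase reporter signal from transgenic T. cruzi replicating inside host cells; inhibitors lower the luminescence signal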
[16] = cytotoxicity toward NIH3T3 fibroblasts, dose response, counter-screen, cell-based, ATP luminescence, mouse fibroblasts (AID 2010); format: functional;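 further: cells exposed to compound for about 90 hours before reading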

Cn1c(NCc2ccccc2Cl)nc2ccccc21
IC50 (HEK293): > 67.6 µM (inactive) | IC50 [1]: > 67.6 µM (inactive)

Cc1c2c(nc3c(C(=O)NC4CCCC4)cnn13)CCCC2
AC50 (Cytochrome P450 2C19): 39.8 µM (inconclusive) | AC50 (Cytochrome P450 3A4): inconclusive

Cc1ccc(C(=C2C3C=CC2C2C(=O)NC(=O)C32)c2ccc(C)cc2)cc1 (stereo not given)
IC50 (Beta-galactosidase): > 66.6 µM (inactive) | IC50 [2]: > 66.6 µM (inactive)

O=C(c1cc(-c2ccccc2Cl)on1)N1CCN(C(=O)c2ccco2)CC1
AC50 (Cytochrome P450 2C19): 25.1 µM (inconclusive) | AC50 (Cytochrome P450 1A2): 25.1 µM (inconclusive) | AC50 (Cytochrome P450 3A4): inconclusive | AC50 (Cytochrome P450 2C9): inconclusive

CS(=O)(=O)N1N=C(c2ccccc2)CC1c1ccc2c(c1)OCO2 (stereo not given)
IC50 [3]: 1.42 µM (active)

COC(=O)C1=C(C)N(Cc2ccccc2)C(NCc2ccccc2)=N[C@H]1c1cccc(C(F)(F)F)c1
AC50 (INS1): 8.05 µM (active) | AC50 [4]: 3.27 µM (active) | EC50 [5]: 13.7 µM (active) | IC50 [6]: > 20 µM (inactive)

Oc1ccc(/C=N/N(Cc2ccccc2)c2ccccc2)cc1
EC50 [7]: 7.47 µM (active) | EC50 (Streptokinase A): > 150 µM (not active) | EC50 (Streptococcus): 9.38 µM (active) | AC50 [8]: 9.12 µM (active)

COc1ccccc1C1CN(c2ccccc2)N=C1c1cccs1 (stereo not given)
IC50 [9]: > 100 µM (inactive)

CC1=C(/C=C/C(C)=N\NC(=O)c2ccncc2)C(C)(C)CCC1
IC50 (cells): 0.61 µM (active) | CC50 [10]: > 40 µM (active) | IC50 (Beta-galactosidase): > 66.6 µM (inactive) | IC50 [2]: > 66.6 µM (inactive)

C=C(C)[C@@H](O)COc1c2ccoc2cc2oc(=O)ccc12
AC50 [11]: 9.08 µM (active)

COc1ccccc1C1SCCN1S(=O)(=O)c1cccc(C(F)(F)F)c1 (stereo not given)
IC50 [12]: > 100 µM (not active) | IC50 [13]: > 100 µM (inactive)

CC(C)NC(=O)N1CCC2(CC1)CCN(C(=O)c1cc(C(F)(F)F)cc(C(F)(F)F)c1)CC2
AC50 (Cytochrome P450 3A4): inconclusive | AC50 (Cytochrome P450 2C9): inconclusive

COc1cc(/C=C/C(=O)OCC(=O)NC(=O)NC2CCCCC2)ccc1OC(F)F
IC50 [9]: > 100 µM (inactive)

COc1ccc(-c2cc3nc(C)cc(C)n3n2)cc1
IC50 (HEK293): > 67.5 µM (inactive) | IC50 [1]: > 67.5 µM (inactive)

COc1cc(/C=C2\C(=O)ON=C2c2ccc(Cl)cc2)ccc1O
IC50 (Large T antigen): 14.6 µM (active) | AC50 [4]: 1.76 µM (active) | AC50 [14]: > 20 µM (inactive) | EC50 [5]: 12.1 µM (active)

S=C(Nc1ccc(Br)cc1)N1CCn2cccc2C1c1cccnc1 (stereo not given)
EC50 [15]: 0.605 µM (active) | IC50 [12]: > 100 µM (not active) | IC50 [13]: > 100 µM (inactive) | EC50 [16]: > 60 µM (not active)
